Source: patent US10138271B2, “Native and agonist CTL epitopes of the MUC1 tumor antigen” (The United States of America, as represented by the …, priority 2012, dated 2018)

Assays:
Assay type in all cases: cell-based, human
[1] = system: MUC1-C specific CD8+ T-cells; experiment: HLA-A3 tetramer analysis of T-cell lines; conditions: T-cell line after 6 IVS cycles
Description: (§1) Phycoerythrin (PE) labeled HLA-A3-P432-3F10K and HLA-A3-P483-2L3F tetramers were prepared by the NIH Tetramer Core Facility (Atlanta, Ga.), and PE labeled MHC class I human negative tetramer (Kit No T01044) was obtained from Beckman Coulter Inc (Sykesville, Md.). […] The tetramers were used at a 1:100 dilution, and cells were stained for 45 minutes at 4° C. 1×10^5 cells were acquired on an LSRII (BD), and data was analyzed using FlowJo 9.0.1 software (Tree Star Inc, Ashland, Oreg.).
To determine the frequency of MUC1-C specific CD8^+ T-cells in the T-cell lines generated with peptides P432-3F10K and P483-2L3F, HLA-A3-P432-3F10K tetramer and HLA-A3-P483-2L3F tetramer analysis was used. After 6 IVS cycles, 20% and 16% of the T-cells bound to the P432-3F10K and P483-2L3F tetramer, respectively. 0.01% and 0.04% of the cells bound to a negative tetramer.

[2] = system: CD8+ T-cells in PBMCs from carcinoma patients; experiment: IFNγ ELISPOT assay, precursor frequency of specific T-cells in patient PBMCs; conditions: for Patients with specific IFNγ production upon stimulation with peptide: PBMCs pre and three months postvaccination; for Precursor frequency of specific T-cells: peptide 25 μg/mL
Description: Measurement of CD8 immune responses in HLA-A3^+ patients was conducted by enzyme-linked immunosorbent spot assay (ELISPOT) using a modification of the procedure described in Arlen et al., Cancer Immunol. Immunother., 49: 517-529 (2000). The assay was performed using K562-A3 cells as APC. ELISPOT measures the frequency of T cells releasing IFNγ in response to stimulation with a peptide. P432-3F10K, P483-2L3F, no peptide, or an HIV gag peptide (SEQ ID NO: 25; a negative control) were used. Pre- and Post-vaccination PBMCs from each patient were compared. A positive response was scored as a ≥2-fold increase in IFNγ-secreting cells. The spots were analyzed using an ImmunoSpot counter (Cellular Technology Ltd, Shaker Heights, Ohio).
To evaluate the presence of CD8^+ T-cells reactive to the P432-3F10K and P483-2L3F peptides in PBMCs from carcinoma patients enrolled in the clinical vaccine trial, an IFNγ ELISPOT assay was performed. The P432-3F10K and P483-2L3F peptides were used in an ELISPOT assay at a concentration of 25 μg/mL to determine the precursor frequency of specific T-cells. Peptide-pulsed K562-A3 cells were used as APC at an effector:APC ratio of 1:2. HIV peptide and no peptide were used as controls.

[3] = system: MUC1-C specific T-cell lines; experiment: Cytokine production by MUC1-C specific T-cell lines with peptide-pulsed autologous B-cells (Multi-array)
Description: 2.2×10^6 T-cells and 5.5×10^6 autologous B-cells pulsed with peptide P432-3F10K or P483-2L3F were incubated for 24 h in […] medium per well. The supernatants were analyzed by Multi-array technology (Meso Scale Diagnostics, Gaitersburg, Md.) for detection of cytokines.
To test the ability of the MUC1-C peptides to induce cytokine production, P432-3F10K and P483-2L3F specific T-cell lines (1.1×10^6 T cells/mL) from two patients from the PANVAC ovarian cancer clinical trial described in Example 6 were incubated for 24 hours with autologous B-cells pulsed with P432-3F10K or P483-2L3F for 24 hours. The cytokine levels in supernatant of stimulated and unstimulated cells were evaluated.

[4] = system: CD8+ T cells in PBMCs from cancer patients; experiment: Tetramer staining of patient PBMCs after 2 IVS cycles with peptide
Description: as §1
PBMCs from three patients from the clinical vaccine trial were stimulated for 2 IVS cycles with the autologous dendritic cells exposed to peptide P432-3F10K or P483-2L3F, and one week after the last stimulation the cells were subjected to FACS analysis after staining with CD8-FITC (20 μL) and either P432-3F10K/P483-2L3F-tetramer-PE (1 μL) or negative tetramer-PC (1 μL) for 45 minutes.
Results in Tables 9 and 10 are expressed as the frequency of tetramer positive cells from all CD8^+ T-cells.

Row | Sequence | T-cells bound to peptide/HLA-A3 tetramer [1] | Patients with specific IFNγ production upon stimulation with peptide [2] | Precursor frequency of specific T-cells ([2]; Patient II, Post) | Precursor frequency of specific T-cells ([2]; Patient II, Pre) | Precursor frequency of specific T-cells ([2]; Patient III, Post) | Precursor frequency of specific T-cells ([2]; Patient III, Pre) | Precursor frequency of specific T-cells ([2]; Patient IV, Post) | Precursor frequency of specific T-cells ([2]; Patient IV, Pre) | Precursor frequency of specific T-cells ([2]; Patient IX, Post) | Precursor frequency of specific T-cells ([2]; Patient IX, Pre) | Precursor frequency of specific T-cells ([2]; Patient V, Post) | Precursor frequency of specific T-cells ([2]; Patient V, Pre) | Precursor frequency of specific T-cells ([2]; Patient VI, Post) | Precursor frequency of specific T-cells ([2]; Patient VI, Pre) | Precursor frequency of specific T-cells ([2]; Patient VII, Post) | Precursor frequency of specific T-cells ([2]; Patient VII, Pre) | Precursor frequency of specific T-cells ([2]; Patient VIII, Post) | Precursor frequency of specific T-cells ([2]; Patient VIII, Pre) | Precursor frequency of specific T-cells ([2]; Patient X, Post) | Precursor frequency of specific T-cells ([2]; Patient X, Pre) | other results
1 | ALFIVYLIAK [Peptide P432-3F10K] | 20% | 5 of 11 | 1/2372 | 1/6316 | 1/5455 | 1/6522 | 1/1322 | 1/2000 | <1/200000 | <1/200000 | <1/200000 | <1/200000 | 1/21429 | 1/4511 | <1/200000 | <1/200000 | <1/200000 | <1/200000 | <1/200000 | <1/200000 | Precursor frequency of specific T-cells ([2]; Patient XI, Post): 1/7229; Precursor frequency of specific T-cells ([2]; Patient XI, Pre): 1/4196; IFNγ ([3]; Patient I, IVS 7): 350 pg/mL; IL-2 ([3]; Patient I, IVS 7): 40 pg/mL; IL-6 ([3]; Patient I, IVS 7): 16 pg/mL; IL-12p70 ([3]; Patient I, IVS 7): 5 pg/mL; TNFα ([3]; Patient I, IVS 7): 180 pg/mL; IFNγ ([3]; Patient II, IVS 8): 50 pg/mL; IL-2 ([3]; Patient II, IVS 8): 3 pg/mL; IL-6 ([3]; Patient II, IVS 8): 80 pg/mL; IL-12p70 ([3]; Patient II, IVS 8): 7 pg/mL; TNFα ([3]; Patient II, IVS 8): 130 pg/mL; Frequency of tetramer positive cells from all CD8+ T-cells ([4]; patient III post-vaccination): 59.9%; Frequency of tetramer positive cells from all CD8+ T-cells ([4]; patient III pre-vaccination): 44.5%; Frequency of tetramer positive cells from all CD8+ T-cells ([4]; patient IV post-vaccination): 23.8%; Frequency of tetramer positive cells from all CD8+ T-cells ([4]; patient IV pre-vaccination): 22.0%; Frequency of tetramer positive cells from all CD8+ T-cells ([4]; patient V post-vaccination): 22.0%; Frequency of tetramer positive cells from all CD8+ T-cells ([4]; patient V pre-vaccination): 31.5%
2 | SLFRSPYEK [Peptide P483-2L3F] | 16% | No patient had a specific reaction | <1/200000 | <1/200000 | <1/200000 | <1/200000 | <1/200000 | <1/200000 | <1/200000 | <1/200000 | <1/200000 | <1/200000 | <1/200000 | <1/200000 | <1/200000 | <1/200000 | <1/200000 | <1/200000 | <1/200000 | <1/200000 | Precursor frequency of specific T-cells ([2]; Patient XI, Post): <1/200000; Precursor frequency of specific T-cells ([2]; Patient XI, Pre): <1/200000; IFNγ ([3]; Patient I, IVS 7): 180 pg/mL; IL-2 ([3]; Patient I, IVS 7): 7 pg/mL; IL-6 ([3]; Patient I, IVS 7): 12 pg/mL; IL-12p70 ([3]; Patient I, IVS 7): 5 pg/mL; TNFα ([3]; Patient I, IVS 7): 46 pg/mL; IFNγ ([3]; Patient II, IVS 8): 2590 pg/mL; IL-2 ([3]; Patient II, IVS 8): 15 pg/mL; IL-6 ([3]; Patient II, IVS 8): 150 pg/mL; IL-12p70 ([3]; Patient II, IVS 8): 9 pg/mL; TNFα ([3]; Patient II, IVS 8): 470 pg/mL; Frequency of tetramer positive cells from all CD8+ T-cells ([4]; patient III post-vaccination): 80.9%; Frequency of tetramer positive cells from all CD8+ T-cells ([4]; patient III pre-vaccination): 64.7%; Frequency of tetramer positive cells from all CD8+ T-cells ([4]; patient IV post-vaccination): 65.7%; Frequency of tetramer positive cells from all CD8+ T-cells ([4]; patient IV pre-vaccination): 45.5%; Frequency of tetramer positive cells from all CD8+ T-cells ([4]; patient V post-vaccination): 43.8%; Frequency of tetramer positive cells from all CD8+ T-cells ([4]; patient V pre-vaccination): 53.5%
